Assay results reported in patent publication US8969333B2, “Therapeutic compositions and methods” (The Penn State Research Foundation, priority 2010, dated 2015).

Tested on: U2OS p53-shRNA cells
Assay: MTT assay of U2OS cells with or without p53 depletion by shRNA
Format: cell-based, human
Settings: same inhibitor concentration, p<0.02
Experimental: MTT assays are performed in U2OS cells with or without p53 depletion to analyze the role of p53 in YW3-56 mediated cell growth inhibition and autophagy.
U2OS and S-180 cells were cultured in Dulbecco modified Eagle medium (DMEM) supplemented with 10% fetal bovine serum and 1% penicillin-streptomycin in a 5% CO2 incubator. U2OS p53-shRNA and U2OS Ctrl-shRNA cells were generated as described in Li, P. et al., Regulation of p53 target gene expression by peptidylarginine deiminase 4. Mol Cell Bial 28 (15), 4745-4758 (2008). Concentrations and duration of YW3-56 treatment were performed as specified in the figures and text. For starvation assay, U2OS cells were first cultured in serum-free DMEM for 16 hr, 10% fetal bovine serum and different concentrations of YW3-56 was then added back and cells were further incubated for 8 hr before further analyses. SESN2 siRNA (Santa Cruz) and GFP siRNA (Dharmacon Inc.) were transfected into U2OS cells using the XtremeGene siRNA transfection reagents (Roche Inc.). Cells were incubated in the presence of the siRNA for 48 hr before adding YW3-56 and further incubated for 8 hr before analyses.

Structure (SMILES): CN(C)c1ccc2cc(C(=O)N[C@@H](CCCNC(=N)CCl)C(=O)NCc3ccccc3)ccc2c1 [YW3-56]
- efficacy on cell growth inhibition after p53 depletion: decreased significantly
